Measurements taken from paper PMC7558026, “Exploring and applying the substrate promiscuity of a C-glycosyltransferase in the chemo-enzymatic synthesis of bioactive C-glycosides” (Nature Communications, 2020).
Where “and” joins values, the source holds several entries; their conditions need not be identical. Equal values may be shown once.

Legend:
AbCGT = AbCGT (Aloe vera, UniProt A0A7G9P699); assay: Sugar donor promiscuity of AbCGT with phloretin (17) as acceptor; format: biochemical, Aloe barbadensis; conditions: sugar donor with phloretin (17) as acceptor; Reaction-1 to -3
Sequence of AbCGT (A0A7G9P699 entry or part of it): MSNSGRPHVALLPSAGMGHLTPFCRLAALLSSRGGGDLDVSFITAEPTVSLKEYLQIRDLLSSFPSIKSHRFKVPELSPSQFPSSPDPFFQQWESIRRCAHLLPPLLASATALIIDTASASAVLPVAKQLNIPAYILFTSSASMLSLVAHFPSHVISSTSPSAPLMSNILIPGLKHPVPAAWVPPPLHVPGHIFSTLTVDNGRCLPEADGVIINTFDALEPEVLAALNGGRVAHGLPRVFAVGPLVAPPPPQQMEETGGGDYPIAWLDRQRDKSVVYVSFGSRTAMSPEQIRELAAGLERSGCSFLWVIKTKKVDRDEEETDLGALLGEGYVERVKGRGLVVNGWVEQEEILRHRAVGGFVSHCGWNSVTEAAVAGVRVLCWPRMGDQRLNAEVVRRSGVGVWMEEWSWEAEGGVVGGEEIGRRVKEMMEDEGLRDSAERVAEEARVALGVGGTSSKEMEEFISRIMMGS
Protocol: The reaction mixture contained 0.5 mM sugar donors (1.0 mM for di-glycosylation), 0.25 mM aglycons, 50 mM Tris-HCl (pH 7.4), and 50‒100 μg of purified AbCGT in a final volume of 100 μL. Due to the instability of some acceptors in the buffer of pH 11.0, the reactions were performed under the physiological conditions (pH 7.4, 30 °C) to compare the catalytic activities of AbGT27 with different substrates under the same conditions. The reactions were performed at 30 °C for up to 12 h and terminated by the addition of 200 μL of ice-cold methanol. Subsequently, samples were centrifuged at 15,000 × g for 30 min to collect the supernatant, and aliquots were analyzed by HPLC-UV/ESIMS. HPLC analysis was performed on a Shiseido CAPCELL PAK C18 MG III column (250 mm × 4.6 mm I.D., 5 μm, Shiseido Co., Ltd., Japan) at a flow rate of 1 mL min^‒1. The mobile phase was a gradient elution of solvents A (0.1% formic acid aqueous solution) and B (methanol). The gradient programs were used for the analysis of the reactions (Supplementary Table 6). The conversion rates of the enzyme reactions were calculated from peak areas of glycosylated products and substrates as analyzed by HPLC. To facilitate inferential statistical analysis, three parallel assays were routinely performed; the means ± SD from triplicate analyses are reported here.

ICR mice = assay: Oral glucose-tolerance test (OGTT) in normal ICR mice; format: in vivo; conditions: individual mice
Protocol: The hypoglycemic effect of 46a was firstly evaluated by oral glucose-tolerance test (OGTT) in mice with normal blood glucose levels. Male Institute of Cancer Research (ICR) mice weighing 24–26 g were obtained from Beijing Vital River Laboratory Animal Technology Co., Ltd (Beijing, China) and divided into three groups (n = 7–8). […] After 2 h of fasting, blood samples were collected from the tails for determination of baseline values of blood glucose (0 min). The mice were then orally administered glucose (2 g kg^‒1 BW), and blood samples were collected at 15, 30, 60, and 120 min. A glucose oxidase (GOD) assay was used for blood glucose-level measurement. The values of area under the glucose-time curve (AUC) were calculated.

KKAy mice [1] = assay: Hypoglycemic effect in T2DM KKAy mice, blood glucose; format: in vivo; conditions: individual mice
Protocol: (§1) To evaluate the hypoglycemic effect of 46a in type 2 diabetes mellitus (T2DM), female KKAy mice weighing 42–48 g were obtained from the Animal Center of the Institute of Laboratory Animal Sciences, Chinese Academy of Medical Sciences and Peking Union Medical College. […] Blood samples were collected at 1, 2, 4, 6, 8, 24, and 48 h after treatment. […] The glucose levels in urine 4 h and 6 h after administration were also determined using a Biosen C-Line Glucose analyzer (EKF Diagnostics, Germany).

KKAy mice [2] = assay: Urinary glucose excretion in T2DM KKAy mice; format: in vivo; conditions: 46a 100 mg kg^‒1 or dapagliflozin 5mg/kg, individual mice
Protocol: as §1

SGLT1 = molecular target: T1, SGLT1 (Homo sapiens, UniProt P13866); assay: 1-NBDG uptake in HEK293 cells stably expressing SGLT1; format: cell-based; conditions: HEK293, compound at 10 μM; triplicate; read-out: SGLT1 inhibitory rates
T1 construct: The full-length SGLT1 cDNA was obtained by PCR with forward primer; expressed in transfected cells
T1 sequence (P13866 1-664): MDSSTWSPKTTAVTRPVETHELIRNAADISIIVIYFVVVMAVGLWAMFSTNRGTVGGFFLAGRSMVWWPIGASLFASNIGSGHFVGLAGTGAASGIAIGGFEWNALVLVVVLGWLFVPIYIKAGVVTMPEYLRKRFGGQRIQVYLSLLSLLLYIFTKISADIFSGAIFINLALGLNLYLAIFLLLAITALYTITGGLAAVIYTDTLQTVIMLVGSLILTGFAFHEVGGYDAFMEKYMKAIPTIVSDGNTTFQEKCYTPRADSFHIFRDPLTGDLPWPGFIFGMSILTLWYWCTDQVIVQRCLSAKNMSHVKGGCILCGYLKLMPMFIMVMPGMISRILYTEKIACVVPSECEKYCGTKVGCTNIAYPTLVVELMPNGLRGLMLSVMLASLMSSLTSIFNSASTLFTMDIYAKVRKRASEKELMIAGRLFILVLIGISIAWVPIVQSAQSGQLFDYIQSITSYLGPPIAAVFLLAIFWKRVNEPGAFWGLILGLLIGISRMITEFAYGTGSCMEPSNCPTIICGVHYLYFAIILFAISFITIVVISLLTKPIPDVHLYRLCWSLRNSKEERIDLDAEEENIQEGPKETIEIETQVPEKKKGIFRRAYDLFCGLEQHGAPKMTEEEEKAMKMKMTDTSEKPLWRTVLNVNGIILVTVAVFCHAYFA

alloxan-induced DM mice = assay: Hypoglycemic effect in alloxan-induced diabetic mellitus (DM) mice; format: in vivo; conditions: individual mice
Protocol: Type 1 diabetes mellitus (T1DM) mice were established by intravenous injection of alloxan tetrahydrate (68 mg kg^‒1 BW). […] Nonfasting blood glucose was kinetically monitored at 1, 2, 4, 6, 8, 24, and 48 h after treatment with 46a.

SGLT2 = molecular target: T2, SGLT2 (Homo sapiens, UniProt P31639); assay: 1-NBDG uptake in HEK293 cells stably expressing SGLT2; format: cell-based; conditions: triplicate
T2 construct: Human full-length SGLT2 cDNA (NM_003041.3) was synthesized; expressed in transfected cells; host or cells: HEK293, retroviral transduction with pMSCVpuro-SGLT2, puromycin selected
T2 sequence (P31639 1-672): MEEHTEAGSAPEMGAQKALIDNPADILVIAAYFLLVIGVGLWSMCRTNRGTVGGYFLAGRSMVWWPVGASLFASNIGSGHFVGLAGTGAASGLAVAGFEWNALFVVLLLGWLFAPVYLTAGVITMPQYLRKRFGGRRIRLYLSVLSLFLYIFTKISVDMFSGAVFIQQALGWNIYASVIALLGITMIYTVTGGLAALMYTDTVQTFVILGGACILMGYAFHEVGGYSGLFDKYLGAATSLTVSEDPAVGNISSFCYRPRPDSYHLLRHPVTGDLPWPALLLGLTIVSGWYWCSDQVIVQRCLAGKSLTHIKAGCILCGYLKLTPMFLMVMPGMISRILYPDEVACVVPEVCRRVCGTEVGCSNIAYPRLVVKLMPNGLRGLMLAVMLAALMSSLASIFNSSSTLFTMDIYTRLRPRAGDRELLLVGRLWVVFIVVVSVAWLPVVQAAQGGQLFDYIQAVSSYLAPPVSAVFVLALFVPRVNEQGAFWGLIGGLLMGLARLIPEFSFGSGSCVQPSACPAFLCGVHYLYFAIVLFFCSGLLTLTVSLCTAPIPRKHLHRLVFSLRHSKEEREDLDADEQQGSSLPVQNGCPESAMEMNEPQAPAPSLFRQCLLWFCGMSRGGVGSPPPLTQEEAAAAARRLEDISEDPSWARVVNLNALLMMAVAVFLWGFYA

O=C(O)C1OC(OP(=O)(O)OP(=O)(O)OCC2OC(n3ccc(=O)[nH]c3=O)C(O)C2O)C(O)C(O)C1O [e, UDP-α-D-glucuronic acid]
conversion rates, O,N,S-glycosylation (AbCGT): 0%
conversion rates, di-C-glycosylation (AbCGT): 0%
conversion rates, mono-C-glycosylation (AbCGT): 4.8% and 5.3%

CCOc1ccc(Cc2cc([C@@H]3O[C@H](CO)[C@@H](O)[C@H](O)[C@H]3O)ccc2Cl)cc1 [Dapagliflozin, reference compound]
OD505nm (blood glucose, GOD assay) in OGTT (ICR mice; 0 min, ICR mice, oral 46a 100 mg kg^‒1 or dapagliflozin 5 mg kg^‒1): 0.188 and 0.144 and 0.165 and 0.159 and 0.17 and 0.15 and 0.177 and 0.146
OD505nm (blood glucose, GOD assay) in OGTT (ICR mice; 15 min after glucose 2 g kg^‒1, oral 46a 100 mg kg^‒1 or dapagliflozin 5 mg kg^‒1): 0.243 and 0.23 and 0.198 and 0.207 and 0.185 and 0.182 and 0.211 and 0.199
OD505nm (blood glucose, GOD assay) in OGTT (ICR mice; 30 min after glucose, same doses): 0.2 (2×) and 0.22 and 0.193 and 0.178 and 0.196 and 0.205 and 0.204
OD505nm (blood glucose, GOD assay) in OGTT (ICR mice; 60 min after glucose, same doses): 0.209 and 0.178 and 0.176 and 0.169 and 0.175 and 0.171 and 0.182 and 0.185
OD505nm (blood glucose, GOD assay) in OGTT (ICR mice; 120 min after glucose, same doses): 0.173 and 0.17 and 0.162 and 0.165 (2×) and 0.166 and 0.157 and 0.167
blood glucose (KKAy mice [1]; 0h, KKAy mice, single dose 46a 100 mg kg^‒1 or dapagliflozin 5 mg kg^‒1): 376.7 mg/dL and 390 mg/dL and 405.5 mg/dL and 293.3 mg/dL and 575.6 mg/dL and 463.6 mg/dL and 388.1 mg/dL
blood glucose (KKAy mice [1]; 1h, same doses): 205.5 mg/dL and 228.8 mg/dL and 391.4 mg/dL and 363.9 mg/dL and 193.8 mg/dL and 248.6 mg/dL and 235.8 mg/dL
blood glucose (KKAy mice [1]; 2h, same doses): 279.3 mg/dL and 221.6 mg/dL and 285.4 mg/dL and 256 mg/dL and 184.4 mg/dL and 245.5 mg/dL and 256.8 mg/dL
blood glucose (KKAy mice [1]; 4h, same doses): 138 mg/dL and 102 mg/dL and 48.9 mg/dL and 98.1 mg/dL and 137.3 mg/dL and 182.3 mg/dL and 181.7 mg/dL
blood glucose (KKAy mice [1]; 6h, same doses): 123.1 mg/dL and 172.3 mg/dL and 164.6 mg/dL and 79.8 mg/dL and 177.1 mg/dL and 134.4 mg/dL
blood glucose (KKAy mice [1]; 8h, same doses): 91.6 mg/dL and 196.3 mg/dL and 150.5 mg/dL and 208.1 mg/dL and 124.9 mg/dL and 86.9 mg/dL
blood glucose (KKAy mice [1]; 24h, same doses): 254.9 mg/dL and 217.5 mg/dL and 176.2 mg/dL and 237.1 mg/dL and 286.9 mg/dL and 219.8 mg/dL
blood glucose (KKAy mice [1]; 48h, same doses): 395.7 mg/dL and 347.1 mg/dL and 229.8 mg/dL and 332.5 mg/dL and 388.1 mg/dL and 274.9 mg/dL
glucose in urine (KKAy mice [2]; 4h): 13936 mg/dL and 9326 mg/dL and 12440 mg/dL and 15728 mg/dL
glucose in urine (KKAy mice [2]; 6h): 15122 mg/dL and 8208 mg/dL and 11640 mg/dL and 11138 mg/dL
inhibition at 10 µM (SGLT1): 98.4%
OD505nm (nonfasting blood glucose) (alloxan-induced DM mice; 0h, alloxan-induced DM mice, single dose 46a 100 mg kg^‒1 or dapagliflozin 5 mg kg^‒1): 0.567 and 0.574 and 0.561 and 0.564 and 0.434 and 0.496 and 0.426 and 0.589
OD505nm (nonfasting blood glucose) (alloxan-induced DM mice; 1h, same doses): 0.393 and 0.333 and 0.301 and 0.52 and 0.314 and 0.35 and 0.222 and 0.29
OD505nm (nonfasting blood glucose) (alloxan-induced DM mice; 2h, same doses): 0.27 and 0.388 and 0.281 and 0.364 and 0.279 and 0.346 and 0.193 and 0.231
OD505nm (nonfasting blood glucose) (alloxan-induced DM mice; 4h, same doses): 0.352 and 0.41 and 0.322 and 0.471 and 0.197 and 0.266 and 0.208 and 0.227
OD505nm (nonfasting blood glucose) (alloxan-induced DM mice; 8h, same doses): 0.347 and 0.446 and 0.312 and 0.421 and 0.195 and 0.25 and 0.231 and 0.327
OD505nm (nonfasting blood glucose) (alloxan-induced DM mice; 24h, same doses): 0.536 and 0.578 and 0.561 and 0.735 and 0.409 and 0.563 and 0.408 and 0.501
OD505nm (nonfasting blood glucose) (alloxan-induced DM mice; 48h, same doses): 0.513 and 0.594 and 0.579 and 0.796 and 0.531 and 0.647 and 0.477 and 0.584
inhibition at 10 µM (SGLT2; HEK293, compound at 10 μM, read-out: SGLT2 inhibitory rates): 100%
SGLT2 inhibitory rates (SGLT2; compound at 10 μM, 10 µM): 102.4%

CC(=O)NC1C(OP(=O)(O)OP(=O)(O)OCC2OC(n3ccc(=O)[nH]c3=O)C(O)C2O)OC(CO)C(O)C1O (stereo not shown) [f]
conversion rates, O,N,S-glycosylation (AbCGT): 0%
conversion rates, di-C-glycosylation (AbCGT): 0%
conversion rates, mono-C-glycosylation (AbCGT): 0%
